A value given as a limit tells only on which side of the number the result lay.

For two compounds, disease control, inhibition of growth and pest or weed control results are on record in patent publication US20120316184A1, “NOVEL MICROBICIDES” (SYNGENTA CROP PROTECTION LLC, priority 2010, published 2012).

One experiment has as its system Phytophthora infestans. Type of experiment: in vivo. The conditions noted are these: 200 ppm; tomato leaf disks, inoculated 1 day after application, assessed 5-7 days after application, vs untreated.
Experiment [1] relates to Glomerella lagenarium (Colletotrichum lagenarium). As to the kind of experiment: Fungicidal activity against Glomerella lagenarium (Colletotrichum lagenarium) / liquid culture (anthracnose). Type of experiment: cell-based. The conditions noted are these: Colletotrichum orbiculare, liquid culture (PDB), inhibition of growth measured photometrically 3-4 days after application, read-out: disease control. On the procedure:
Fungicidal Activity Against Glomerella lagenarium (Colletotrichum lagenarium)/Liquid Culture (Anthracnose) Conidia of the fungus from cryogenic storage were directly mixed into nutrient broth (PDB potato dextrose broth). After placing a (DMSO) solution of test compound into a microtiter plate (96-well format), the nutrient broth containing the fungal spores was added. The test plates were incubated at 24° C. and the inhibition of growth was measured photometrically 3-4 days after application.

The next experiment has as its system Gaeumannomyces graminis. In words: Fungicidal activity against Gaeumannomyces graminis / liquid culture (take-all of cereals). The conditions noted are these: liquid culture (PDB), inhibition of growth determined photometrically 4-5 days after application, read-out: disease control. Type of experiment: cell-based. On the procedure:
Fungicidal Activity Against Gaeumannomyces graminis/Liquid Culture (Take-all of Cereals) Mycelial fragments of the fungus from cryogenic storage were directly mixed into nutrient broth (PDB potato dextrose broth). After placing a (DMSO) solution of test compound into a microtiter plate (96-well format), the nutrient broth containing the fungal spores is added. The test plates were incubated at 24° C. and the inhibition of growth was determined photometrically 4-5 days after application.

In another experiment the test system is Pyrenophora teres. As to the kind of experiment: Fungicidal activity against Pyrenophora teres / barley / leaf disc preventative (net blotch). Type of experiment: in vivo. The conditions noted are these: foliar, barley leaf segments cv. Hasso, inoculated 2 days after application, assessed 5-7 days after application, vs untreated, read-out: disease control. The method, then: Fungicidal Activity Against Pyrenophora teres/Barley/Leaf Disc Preventative (Net Blotch) Barley leaf segments cv. Hasso were placed on agar in a multiwell plate (24-well format) and sprayed with the formulated test compound diluted in water. The leaf […] inoculated with a spore suspension of the fungus 2 days after application. The inoculated leaf segments were incubated at 20° C. and 65% rh under a light regime of 12 h light/12 h darkness in a climate cabinet and the activity of a compound was assessed as disease control compared to untreated when an appropriate level of disease damage appears in untreated check leaf segments (5-7 days after application).

In experiment [2] the test system is Puccinia recondita f. sp. tritici. In words: Fungicidal activity against Puccinia recondita f. sp. tritici / wheat / leaf disc preventative (brown rust). Type of experiment: in vivo. The conditions noted are these: foliar, wheat leaf segments cv. Kanzler, inoculated 1 day after application, assessed 7-9 days after application, vs untreated, read-out: disease control. On the procedure:
Fungicidal Activity Against Puccinia recondita f. sp. tritici/Wheat/Leaf Disc Preventative (Brown Rust) Wheat leaf segments cv. Kanzler were placed on agar in multiwell plates (24-well format) and sprayed with the formulated test compound diluted in water. The leaf disks were inoculated with a spore suspension of the fungus 1 day after application. The inoculated leaf segments were incubated at 19° C. and 75% rh under a light regime of 12 h light/12 h darkness in a climate cabinet and the activity of a compound was assessed as percent disease control compared to untreated when an appropriate level of disease damage appears in untreated check leaf segments (7-9 days after application).

In experiment [3] the test system is Mycosphaerella arachidis (Cercospora arachidicola). In words: Fungicidal activity against Mycosphaerella arachidis (Cercospora arachidicola) / liquid culture (early leaf spot). Type of experiment: cell-based. The conditions noted are these: liquid culture (PDB), inhibition of growth determined photometrically 4-5 days after application, read-out: disease control. The method, then: Fungicidal Activity Against Mycosphaerella arachidis (Cercospora arachidicola)/Liquid Culture (Early Leaf Spot) Conidia of the fungus from cryogenic storage were directly mixed into nutrient broth (PDB potato dextrose broth). After placing a (DMSO) solution of test compound into a microtiter plate (96-well format), the nutrient broth containing the fungal spores was added. The test plates were incubated at 24° C. and the inhibition of growth was determined photometrically 4-5 days after application.

For experiment [4], the system named is Phaeosphaeria nodorum (Septoria nodorum). As to the kind of experiment: Fungicidal activity against Phaeosphaeria nodorum (Septoria nodorum) / wheat / leaf disc preventative (glume blotch). Type of experiment: in vivo. The conditions noted are these: Parastagonospora nodorum, foliar, wheat leaf segments cv. Kanzler, inoculated 2 days after application, assessed 5-7 days after application, vs untreated, read-out: disease control. On the procedure: Fungicidal Activity Against Phaeosphaeria nodorum (Septoria nodorum)/Wheat/Leaf Disc Preventative (Glume Blotch) Wheat leaf segments cv. Kanzler were placed on agar in a multiwell plate (24-well format) and sprayed with the formulated test compound diluted in water. The leaf disks were inoculated with a spore suspension of the fungus 2 days after application. The inoculated test leaf disks were incubated at 20° C. and 75% rh under a light regime of 12 h light/12 h darkness in a climate cabinet and the activity of a compound was assessed as percent disease control compared to untreated when an appropriate level of disease damage appears in untreated check leaf disks (5-7 days after application).

The test system of experiment [5] is Monographella nivalis (Microdochium nivale). In words: Fungicidal activity against Monographella nivalis (Microdochium nivale) / liquid culture (foot rot cereals). Type of experiment: cell-based. The conditions noted are these: liquid culture (PDB), inhibition of growth determined photometrically 4-5 days after application, read-out: disease control. The method, then:
Fungicidal Activity Against Monographella nivalis (Microdochium nivale)/Liquid Culture (Foot Rot Cereals) Conidia of the fungus from cryogenic storage were directly mixed into nutrient broth (PDB potato dextrose broth). After placing a (DMSO) solution of test compound into a microtiter plate (96-well format), the nutrient broth containing the fungal spores was added. The test plates were incubated at 24° C. and the inhibition of growth was determined photometrically 4-5 days after application.

The test system of experiment [6] is Botryotinia fuckeliana (Botrytis cinerea). In words: Fungicidal activity against Botryotinia fuckeliana (Botrytis cinerea) / liquid culture (gray mould). The conditions noted are these: liquid culture (Vogels broth), inhibition of growth determined photometrically 3-4 days after application, read-out: disease control. Type of experiment: cell-based. The method, then: Fungicidal Activity Against Botryotinia fuckeliana (Botrytis cinerea)/Liquid Culture (Gray Mould) Conidia of the fungus from cryogenic storage were directly mixed into nutrient broth (Vogels broth). After placing a (DMSO) solution of test compound into a microtiter plate (96-well format), the nutrient broth containing the fungal spores was added. The test plates were incubated at 24° C. and the inhibition of growth was determined photometrically 3-4 days after application.

The test system of experiment [7] is Mycosphaerella graminicola (Septoria tritici). In words: Fungicidal activity against Mycosphaerella graminicola (Septoria tritici) / liquid culture (Septoria blotch). Type of experiment: cell-based. The conditions noted are these: Zymoseptoria tritici, liquid culture (PDB), inhibition of growth determined photometrically 4-5 days after application, read-out: disease control. The method, then:
Fungicidal Activity Against Mycosphaerella graminicola (Septoria tritici)/Liquid Culture (Septoria Blotch) Conidia of the fungus from cryogenic storage were directly mixed into nutrient broth (PDB potato dextrose broth). After placing a (DMSO) solution of test compound into a microtiter plate (96-well format), the nutrient broth containing the fungal spores was added. The test plates were incubated at 24° C. and the inhibition of growth was determined photometrically 4-5 days after application.

Take `c1ccc(Cc2cccc(-c3ncc4ccsc4n3)n2)cc1` [Compound T3.1.31, 2-(6-benzyl-pyridin-2-yl)-thieno[2,3-d]pyrimidine]: the disease control result in the experiment with Phytophthora infestans was “at least 80%”.
As for `c1ccc(Cc2cccc(-c3ncc4ccsc4n3)n2)cc1` [Compound T15.16], the inhibition of growth at 200 ppm (in [1]; with Gaeumannomyces graminis; in experiment [3]; in [5]; in [6]; in experiment [7]) was no less than 80% each time. For the same compound, the pest or weed control at 200 ppm (in the experiment with Pyrenophora teres; in experiment [2]; in experiment [4]) was no less than 80% each time.
